Measured values as given in the NIST ThermoML archive (doi:10.1021/je400722h).

What was measured:
[1] = molar heat capacity at constant pressure; xn = mol fraction of the nth substance listed; conditions: 101 kPa, Liquid, Small sample (50 mg) DSC
[2] = excess molar enthalpy (molar enthalpy of mixing); xn = mol fraction of the nth substance listed; conditions: 308.15 K, 101 kPa, Liquid, Power-compensation calorimetry

Cc1ccccc1Cl [2-chlorotoluene] + C1CCOCC1
molar heat capacity at constant pressure [J/K/mol], [1]
Conditions | 298.15 K | 303.15 K | 308.15 K
x1 = 0.0897 | 152.82 | 154.4 | 156.2
x1 = 0.1165 | 153.77 | 155.35 | 157.14
x1 = 0.1429 | 154.71 | 156.28 | 158.07
x1 = 0.1929 | 156.46 | 158.04 | 159.8
x1 = 0.2376 | 158.01 | 159.59 | 161.34
x1 = 0.2892 | 159.77 | 161.35 | 163.09
x1 = 0.3218 | 160.85 | 162.44 | 164.17
x1 = 0.3519 | 161.84 | 163.43 | 165.15
x1 = 0.4019 | 163.44 | 165.03 | 166.75
x1 = 0.4427 | 164.71 | 166.31 | 168.01
x1 = 0.4817 | 165.88 | 167.49 | 169.19
x1 = 0.5216 | 167.05 | 168.66 | 170.35
x1 = 0.5549 | 168 | 169.62 | 171.3
x1 = 0.5936 | 169.07 | 170.69 | 172.36
x1 = 0.6215 | 169.81 | 171.44 | 173.11
x1 = 0.6518 | 170.6 | 172.23 | 173.9
x1 = 0.6902 | 171.57 | 173.21 | 174.87
x1 = 0.7205 | 172.31 | 173.96 | 175.62
x1 = 0.7515 | 173.04 | 174.7 | 176.36
x1 = 0.7931 | 173.99 | 175.66 | 177.32
x1 = 0.8156 | 174.49 | 176.17 | 177.83
x1 = 0.8472 | 175.18 | 176.87 | 178.52
x1 = 0.8831 | 175.93 | 177.63 | 179.3
x1 = 0.9146 | 176.56 | 178.29 | 179.96

[2]
Conditions | excess molar enthalpy [kcal/mol]
x1 = 0.0994 | -0.0166
x1 = 0.1367 | -0.0226
x1 = 0.1982 | -0.0304
x1 = 0.2467 | -0.0368
x1 = 0.3018 | -0.0425
x1 = 0.3537 | -0.0459
x1 = 0.3986 | -0.04876
x1 = 0.4367 | -0.05115
x1 = 0.4825 | -0.0526
x1 = 0.5267 | -0.0526
x1 = 0.5894 | -0.05115
x1 = 0.6276 | -0.05043
x1 = 0.6934 | -0.0457
x1 = 0.7368 | -0.0418
x1 = 0.7864 | -0.037

Cc1ccccc1Cl [2-chlorotoluene] + C1COCCO1
molar heat capacity at constant pressure [J/K/mol], [1]
Conditions | 298.15 K | 303.15 K | 308.15 K
x1 = 0.0903 | 155.43 | 156.69 | 158.03
x1 = 0.1278 | 156.54 | 157.84 | 159.2
x1 = 0.1654 | 157.65 | 158.98 | 160.36
x1 = 0.2006 | 158.69 | 160.04 | 161.44
x1 = 0.2343 | 159.68 | 161.05 | 162.46
x1 = 0.2765 | 160.9 | 162.3 | 163.73
x1 = 0.3004 | 161.59 | 163 | 164.44
x1 = 0.3421 | 162.78 | 164.21 | 165.66
x1 = 0.3876 | 164.06 | 165.52 | 166.99
x1 = 0.4002 | 164.41 | 165.87 | 167.35
x1 = 0.4327 | 165.31 | 166.79 | 168.28
x1 = 0.4726 | 166.39 | 167.9 | 169.41
x1 = 0.5117 | 167.43 | 168.97 | 170.5
x1 = 0.5401 | 168.17 | 169.73 | 171.28
x1 = 0.5915 | 169.49 | 171.09 | 172.67
x1 = 0.6305 | 170.45 | 172.09 | 173.7
x1 = 0.6721 | 171.46 | 173.13 | 174.77
x1 = 0.7198 | 172.57 | 174.28 | 175.95
x1 = 0.7401 | 173.03 | 174.76 | 176.44
x1 = 0.7623 | 173.53 | 175.27 | 176.97
x1 = 0.8004 | 174.36 | 176.13 | 177.84
x1 = 0.8432 | 175.26 | 177.05 | 178.78
x1 = 0.8856 | 176.11 | 177.92 | 179.66
x1 = 0.9165 | 176.7 | 178.52 | 180.26

[2]
Conditions | excess molar enthalpy [kcal/mol]
x1 = 0.0998 | 0.0387
x1 = 0.1643 | 0.0583
x1 = 0.2095 | 0.0676
x1 = 0.2498 | 0.07529
x1 = 0.3012 | 0.0827
x1 = 0.3567 | 0.0872
x1 = 0.4098 | 0.088
x1 = 0.4597 | 0.0877
x1 = 0.5088 | 0.0851
x1 = 0.5563 | 0.08078
x1 = 0.6019 | 0.07529
x1 = 0.6532 | 0.0672
x1 = 0.7067 | 0.0588
x1 = 0.7538 | 0.04924
x1 = 0.8093 | 0.0382
x1 = 0.8498 | 0.0299
x1 = 0.8932 | 0.0209
x1 = 0.9265 | 0.0144

Cc1ccccc1Cl [2-chlorotoluene] + C1COCO1
molar heat capacity at constant pressure [J/K/mol], [1]
Conditions | 298.15 K | 303.15 K | 308.15 K
x1 = 0.0865 | 127.97 | 129.15 | 130.3
x1 = 0.1145 | 129.85 | 131.07 | 132.27
x1 = 0.1386 | 131.45 | 132.71 | 133.94
x1 = 0.1829 | 134.37 | 135.68 | 136.97
x1 = 0.2145 | 136.42 | 137.77 | 139.09
x1 = 0.2573 | 139.17 | 140.56 | 141.91
x1 = 0.2965 | 141.65 | 143.06 | 144.45
x1 = 0.3217 | 143.22 | 144.65 | 146.05
x1 = 0.3506 | 144.99 | 146.45 | 147.87
x1 = 0.3902 | 147.38 | 148.87 | 150.31
x1 = 0.4216 | 149.24 | 150.75 | 152.22
x1 = 0.4654 | 151.78 | 153.32 | 154.82
x1 = 0.5007 | 153.78 | 155.35 | 156.88
x1 = 0.5418 | 156.06 | 157.66 | 159.23
x1 = 0.5905 | 158.68 | 160.33 | 161.94
x1 = 0.6218 | 160.32 | 162.01 | 163.64
x1 = 0.663 | 162.44 | 164.17 | 165.83
x1 = 0.6902 | 163.81 | 165.56 | 167.25
x1 = 0.7118 | 164.88 | 166.65 | 168.36
x1 = 0.7534 | 166.91 | 168.72 | 170.46
x1 = 0.7927 | 168.78 | 170.62 | 172.38
x1 = 0.8426 | 171.11 | 172.98 | 174.76
x1 = 0.8914 | 173.35 | 175.22 | 177
x1 = 0.9206 | 174.66 | 176.53 | 178.31

[2]
Conditions | excess molar enthalpy [kcal/mol]
x1 = 0.0945 | 0.0361
x1 = 0.1378 | 0.05043
x1 = 0.1987 | 0.066
x1 = 0.2396 | 0.07481
x1 = 0.2914 | 0.0841
x1 = 0.3467 | 0.0899
x1 = 0.3962 | 0.0937
x1 = 0.4532 | 0.0956
x1 = 0.4991 | 0.0939
x1 = 0.5432 | 0.0915
x1 = 0.5899 | 0.088
x1 = 0.6329 | 0.08198
x1 = 0.6923 | 0.07337
x1 = 0.7321 | 0.065
x1 = 0.8021 | 0.05043
x1 = 0.8492 | 0.0392
x1 = 0.8912 | 0.0292
x1 = 0.9319 | 0.0186
